Source: patent US20240000769A1, “AMORPHOUS SOLID DISPERSIONS” (UCB Biopharma SRL, priority 2020, published 2024)
Values after ≈ are worked out from the molar mass of the structure shown. Where two headings read alike, the source gives them in different places.

What was measured:
[1] = Shake flask solubility (24 h) in buffer/biorelevant media; assay type: physicochemical; conditions: thermodynamic from solid, n=3, read-out: Solubility Measurements (24 h)
Experimental: The respective solubility of compounds of formula (Ia) and ASD1 was determined in different media while using the shake flask method. An excess of solid (equivalent to a concentration of compound of formula (I) of 5 mg/mL) was suspended in 5 mL of buffer/biorelevant media as specifically described in Table 4 and incubated in a sealed glass vial (10 mL) for 24 h at both RT and 37° C. in a climatic chamber equipped with a rotary mixer. The 24h time point was assumed to have reached solubility, at which time the suspension was filtered through a 0.45-μm ultra free filter (Merck Millipore) and the drug content was determined by HPLC. The solubility of compound (Ia) and ASD1 was determined in triplicate (n=3). Where required to prevent drug precipitation, the filtrate was diluted with a suitable organic solvent. […] These media are respectively a phosphate buffer, FasSGF, FASSIF-V2 and FeSSIF-V2. FasSG is fasted condition gastric fluid. FasSGF is prepared at pH 1.6 and contains 0.08 mM Taurocholate, 0.02 mM phospholipids, 34 mM sodium and 59 mM chloride. FaSSIF-V2 and FeSSIF-V2 are Fasted and Fed State Biorelevant Media, respectively. FaSSIF-V2 is prepared at pH 6.5 and contains 3 mM Taurocholate, 0.2 mM Phospholipids, 106 mM Sodium, 69 mM Chloride and 19 mM Maleic acid. FeSSIF-V2 is prepared at pH 5.8 and contains 10 mM Taurocholate, 2 mM Phospholipids, 0.8 mM Oleate, 5 mM Glycerol monoleate, 218 mM Sodium, 125 mM Chloride and 55 mM Maleic acid.

[2] = Dynamic dissolution profile, USP Apparatus 2, simulated gastric media then FaSSIF-V2; assay type: physicochemical; conditions: 37° C., 30 min 0.1N HCl (1 mg/mL) then 180 min FaSSIF-V2 (0.5 mg/mL)
Experimental: The dissolution profile was determined in a USP Apparatus 2 type (Distek 2100 C Dissolution Apparatus) at 37° C. The dynamic dissolution test includes first a 30 minutes dissolution in simulated gastric media (0.1N HCl) to achieve a concentration equivalent to a concentration of compound of formula (I) of 1 mg/mL, followed by a 180 minutes dissolution in FaSSIF-V2 to achieve a concentration equivalent to a concentration of compound of formula (I) of 0.5 mg/mL.
Then, 50 mL of simulated gastric media (0.1N HCl) was added to the vessel and the paddle speed was fixed at 100 rpm. After 30 minutes, an equivalent volume (50 mL) of fasted state biorelevant media was added to the vessel to obtain the composition of FaSSIF-V2. Dissolution was carried out in triplicate (n=3). At each timepoint, the suspension was filtered through a 0.45-μm ultra free filter (Merck Millipore) and the content of compound of formula (I) was determined by HPLC. The filtrate was then diluted with a suitable organic solvent.

- solubility at 24 h ([1]; aqueous buffer, Phosphate buffer (50 mM), pH 5.8, RT): < 1 µg/mL
- solubility at 24 h ([1]; aqueous buffer, Phosphate buffer (50 mM), pH 6.5, RT): < 1 µg/mL
- solubility at 24 h ([1]; fassgf or other biorelevant, FasSGF, pH 1.6, 37° C.): < 1 µg/mL
- solubility at 24 h ([1]; FaSSIF-V2, pH 6.5, 37° C.): ~1.5 µg/mL (≈ 3.15 µM)
- solubility at 24 h ([1]; FeSSIF-V2, pH 5.8, 37° C.): ~4 µg/mL (≈ 8.4 µM)
SMILES: C[C@H]1c2cccc(C(C)(C)O)c2C[C@H](CO)N1C(=O)Cc1c(Cl)ccc2c1c(Cl)nn2C [Compound (Ia), 2-(3,5-dichloro-1-methyl-indazol-4-yl)-1-[(1S,3R)-3-(hydroxymethyl)-5-(1-hydroxy-1-methyl-ethyl)-1-methyl-3,4-dihydro-1H-isoquinolin-2-yl]ethanone]
- dissolution profile over time [2]: drops in gastric media to very low levels
